# Test results published in patent publication US9051270B2, “Pyridone amides as modulators of sodium channels” (Vertex Pharmaceuticals Incorporated, priority 2013, dated 2015).
# Biological target: human Nav1.8 (Homo sapiens (Human), UniProt Q9Y5Y9)
# Assay: E-VIPR optical membrane potential assay with electrical stimulation
# Assay type: cell-based
# Conditions: HEK cells expressing human Nav1.8
# Excerpt: Sodium channels are voltage-dependent proteins that can be activated by inducing membrane voltage changes by applying electric fields. […] The instrument comprises a microtiter plate handler, an optical system for exciting the coumarin dye while simultaneously recording the coumarin and oxonol emissions, a waveform generator, a current- or voltage-controlled amplifier, and a device for inserting electrodes in well. Under integrated computer control, this instrument passes user-programmed electrical stimulus protocols to cells within the wells of the microtiter plate.
# 24 hours before the assay on E-VIPR, HEK cells expressing human Nav1.8 were seeded in 384-well poly-lysine coated plates at 15,000-20,000 cells per well. […] Cells were grown in vented cap flasks, in 90% humidity and 5% CO2.
# To make the solution added volume of 10% Pluronic F127 stock equal to volumes of CC2-DMPE+DiSBAC6(3). The order of preparation was first mixing Pluronic and CC2-DMPE, then adding DiSBAC6(3) while vortexing, then adding Bath1+β-Cyclodextrin.
# 1) Pre-spotted compounds (in neat DMSO) into compound plates. […] Final compound plate volume was 80 μL (80-fold intermediate dilution from 1 μL DMSO spot; 160-fold final dilution after transfer to cell plate).
# 2) Prepared Hexyl Dye Solution.
# 3) Prepared cell plates. On the day of the assay, medium was aspirated and cells were washed three times with 100 μL of Bath1 Solution, maintaining 25 μL residual volume in each well.
# 4) Dispensed 25 μL per well of Hexyl Dye Solution into cell plates. Incubated for 20-35 minutes at room temp or ambient conditions.
# 5) Dispensed 80 μL per well of Bath1 into compound plates. Acid Yellow-17 (1 mM) was added and Potassium Chloride was altered from 4.5 to 20 mM depending on the NaV subtype and assay sensitivity.
# 6) Washed cell plates three times with 100 μL per well of Bath1, leaving 25 μL of residual volume. Then transferred 25 uL per well from Compound Plates to Cell Plates. Incubated for 20-35 minutes at room temp/ambient condition.
# 7) Read Plate on E-VIPR. […] A pre-stimulus recording was performed for 0.5 seconds to obtain the un-stimulated intensities baseline. The stimulatory waveform was followed by 0.5 seconds of post-stimulation recording to examine the relaxation to the resting state.
# Data was analyzed and reported as normalized ratios of emission intensities measured in the 460 nm and 580 nm channels. The response as a function of time was reported as the ratios obtained using the following formula: […]
# The data was further reduced by calculating the initial (Ri) and final (Rf) ratios. These were the average ratio values during part or all of the pre-stimulation period, and during sample points during the stimulation period. The response to the stimulus R=Rf/Ri was then calculated and reported as a function of time.
# Control responses were obtained by performing assays in the presence of a compound with the desired properties (positive control), such as tetracaine, and in the absence of pharmacological agents (negative control). Responses to the negative (N) and positive (P) controls were calculated as above. The compound antagonist activity A is defined as:
# [formula] where R is the ratio response of the test compound
# Sequence of human Nav1.8 (Q9Y5Y9 whole entry): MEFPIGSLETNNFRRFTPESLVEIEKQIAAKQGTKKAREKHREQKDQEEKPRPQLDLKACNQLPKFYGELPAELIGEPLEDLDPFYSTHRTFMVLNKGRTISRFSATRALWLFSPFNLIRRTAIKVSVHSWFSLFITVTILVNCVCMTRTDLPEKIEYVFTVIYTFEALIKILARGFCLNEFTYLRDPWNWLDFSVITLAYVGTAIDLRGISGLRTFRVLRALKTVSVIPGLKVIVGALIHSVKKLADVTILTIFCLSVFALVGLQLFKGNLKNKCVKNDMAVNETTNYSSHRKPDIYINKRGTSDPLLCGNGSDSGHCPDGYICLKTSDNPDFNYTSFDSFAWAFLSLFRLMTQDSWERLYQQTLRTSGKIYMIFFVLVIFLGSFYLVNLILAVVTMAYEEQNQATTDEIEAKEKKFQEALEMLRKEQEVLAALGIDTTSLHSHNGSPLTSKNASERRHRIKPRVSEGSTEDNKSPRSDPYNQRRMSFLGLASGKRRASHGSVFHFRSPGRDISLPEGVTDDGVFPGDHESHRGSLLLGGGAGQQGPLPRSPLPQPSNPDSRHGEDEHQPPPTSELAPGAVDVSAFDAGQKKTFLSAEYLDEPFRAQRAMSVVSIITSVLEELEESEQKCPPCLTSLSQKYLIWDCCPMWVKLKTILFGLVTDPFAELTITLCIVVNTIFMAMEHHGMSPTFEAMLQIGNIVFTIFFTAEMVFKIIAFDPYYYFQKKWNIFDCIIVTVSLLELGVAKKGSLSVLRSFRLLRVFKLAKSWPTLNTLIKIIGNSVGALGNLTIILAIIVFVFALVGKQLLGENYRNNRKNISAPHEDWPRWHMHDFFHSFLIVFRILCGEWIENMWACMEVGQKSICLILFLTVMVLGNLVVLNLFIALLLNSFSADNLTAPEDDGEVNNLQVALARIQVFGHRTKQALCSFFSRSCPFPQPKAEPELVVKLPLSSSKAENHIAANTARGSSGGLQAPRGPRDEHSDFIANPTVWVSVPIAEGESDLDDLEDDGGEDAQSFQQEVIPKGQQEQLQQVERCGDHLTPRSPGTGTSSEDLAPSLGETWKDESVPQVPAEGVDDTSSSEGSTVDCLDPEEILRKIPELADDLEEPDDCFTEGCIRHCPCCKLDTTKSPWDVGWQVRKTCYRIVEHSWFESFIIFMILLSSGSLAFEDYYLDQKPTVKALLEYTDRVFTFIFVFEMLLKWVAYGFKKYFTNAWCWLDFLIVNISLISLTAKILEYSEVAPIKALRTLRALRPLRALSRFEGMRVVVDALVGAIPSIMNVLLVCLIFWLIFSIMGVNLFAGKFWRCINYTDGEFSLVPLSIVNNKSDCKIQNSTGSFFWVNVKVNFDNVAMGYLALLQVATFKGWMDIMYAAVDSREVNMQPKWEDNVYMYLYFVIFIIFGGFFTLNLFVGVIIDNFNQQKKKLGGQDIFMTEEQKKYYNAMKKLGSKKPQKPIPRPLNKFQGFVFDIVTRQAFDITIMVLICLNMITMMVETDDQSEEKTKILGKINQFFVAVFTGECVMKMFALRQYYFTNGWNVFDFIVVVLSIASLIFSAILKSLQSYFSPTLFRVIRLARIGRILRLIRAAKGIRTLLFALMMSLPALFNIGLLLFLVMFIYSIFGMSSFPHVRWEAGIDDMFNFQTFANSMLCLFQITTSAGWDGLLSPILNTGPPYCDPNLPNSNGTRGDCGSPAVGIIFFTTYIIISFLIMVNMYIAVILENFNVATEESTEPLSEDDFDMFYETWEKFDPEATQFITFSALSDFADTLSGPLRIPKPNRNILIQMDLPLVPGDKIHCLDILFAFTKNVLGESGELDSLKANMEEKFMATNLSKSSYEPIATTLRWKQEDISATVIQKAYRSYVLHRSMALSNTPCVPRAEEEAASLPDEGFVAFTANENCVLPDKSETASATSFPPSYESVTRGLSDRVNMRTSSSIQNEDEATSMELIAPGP
row,SMILES,IC50 [nM]
1,"Cc1cccc(F)c1Oc1cc(Cl)ccc1C(=O)Nc1cc[nH]c(=O)c1 [Compound 17, 4-chloro-2-(2-fluoro-6-methylphenoxy)-N-(2-oxo-1,2-dihydropyridin-4-yl)benzamide]",1800
2,"O=C(Nc1cc[nH]c(=O)c1)c1ccc(C(F)(F)F)cc1OCC1CCOC1 (centres unmarked) [Compound 121, N-(2-oxo-1,2-dihydropyridin-4-yl)-2-((tetrahydrofuran-3-yl)methoxy)-4-(trifluoromethyl)benzamide]",19000
3,"O=C(Nc1cc[nH]c(=O)c1)c1ccc(Cl)cc1Oc1c(F)cccc1Cl [Compound 18, 4-chloro-2-(2-chloro-6-fluorophenoxy)-N-(2-oxo-1,2-dihydropyridin-4-yl)benzamide]",12000
4,"Cc1ncccc1Oc1cc(C(F)(F)F)ccc1C(=O)Nc1cc[nH]c(=O)c1 [Compound 147, 2-((2-methylpyridin-3-yl)oxy)-N-(2-oxo-1,2-dihydropyridin-4-yl)-4-(trifluoromethyl)benzamide]",3800
5,"O=C(Nc1cc[nH]c(=O)c1)c1cc(OC(F)(F)F)ccc1OC1CCCCC1 [Compound 137, 2-(cyclohexyloxy)-N-(2-oxo-1,2-dihydropyridin-4-yl)-5-(trifluoromethoxy)benzamide]",12600
6,"Cn1cc(NC(=O)c2ccc(C(C)(C)C)cc2Oc2ccc(C(F)(F)F)nc2)ccc1=O [Compound 149, 4-(tert-butyl)-N-(1-methyl-6-oxo-1,6-dihydropyridin-3-yl)-2-((6-(trifluoromethyl)pyridin-3-yl)oxy)benzamide]",1650
7,CC1(COc2cc(C(F)(F)F)ccc2C(=O)Nc2cc[nH]c(=O)c2)CC1 [Compound 119],14000
8,"COc1cccc(F)c1Oc1ccc(C(F)(F)F)cc1C(=O)Nc1cc[nH]c(=O)c1 [Compound 48, 2-(2-fluoro-6-methoxyphenoxy)-N-(2-oxo-1,2-dihydropyridin-4-yl)-5-(trifluoromethyl)benzamide]",2700
9,"Cc1ncccc1Oc1ccc(C(F)(F)F)cc1C(=O)Nc1cc[nH]c(=O)c1 [Compound 150, 2-((2-methylpyridin-3-yl)oxy)-N-(2-oxo-1,2-dihydropyridin-4-yl)-5-(trifluoromethyl)benzamide]",6600
10,"O=C(Nc1cc[nH]c(=O)c1)c1ccc(C(F)(F)F)cc1OC1C[C@@H]2C[C@@H]2C1 (stereo partly drawn) [Compound 125, 2-((1R,5S)-bicyclo[3.1.0]hexan-3-yloxy)-N-(2-oxo-1,2-dihydropyridin-4-yl)-4-(trifluoromethyl)benzamide]",17500
11,"CC(C)c1ccc(Oc2ccc(F)cc2C(=O)Nc2cc[nH]c(=O)c2)cc1 [Compound 99, 5-fluoro-2-(4-isopropylphenoxy)-N-(2-oxo-1,2-dihydropyridin-4-yl)benzamide]",5150
12,"Cc1ncccc1Oc1ccc(OC(F)(F)F)cc1C(=O)Nc1cc[nH]c(=O)c1 [Compound 151, 2-((2-methylpyridin-3-yl)oxy)-N-(2-oxo-1,2-dihydropyridin-4-yl)-5-(trifluoromethoxy)benzamide]",8400
13,"O=C(Nc1cc[nH]c(=O)c1)c1cc(C(F)(F)F)ccc1OCC1CCCC1 [Compound 130, 2-(cyclopentylmethoxy)-N-(2-oxo-1,2-dihydropyridin-4-yl)-5-(trifluoromethyl)benzamide]",5100

# Stronger by IC50, values ahead:
row,IC50 [nM],SMILES
1,19,"Cc1cc(Cl)ccc1Oc1ccc(C(F)(F)F)cc1C(=O)Nc1cc[nH]c(=O)c1 [Compound 50, 2-(4-chloro-2-methylphenoxy)-N-(2-oxo-1,2-dihydropyridin-4-yl)-5-(trifluoromethyl)benzamide]"
2,615,"O=C(Nc1cc[nH]c(=O)c1)c1ccc(C(F)(F)F)cc1Oc1ccc(C(F)(F)F)nc1 [Compound 144, N-(2-oxo-1,2-dihydropyridin-4-yl)-4-(trifluoromethyl)-2-((6-(trifluoromethyl)pyridin-3-yl)oxy)benzamide]"
3,330,"COc1ccc(Oc2ccc(F)cc2C(=O)Nc2cc[nH]c(=O)c2)c(Cl)c1 [Compound 103, 2-(2-chloro-4-methoxyphenoxy)-5-fluoro-N-(2-oxo-1,2-dihydropyridin-4-yl)benzamide]"
4,105,"O=C(Nc1cc[nH]c(=O)c1)c1ccc(C(F)(F)F)cc1Oc1ccccc1OC(F)(F)F [Compound 80, N-(2-oxo-1,2-dihydropyridin-4-yl)-2-(2-(trifluoromethoxy)phenoxy)-4-(trifluoromethyl)benzamide]"
5,340,"Cc1ccc(Oc2ccc(C(F)(F)F)cc2C(=O)Nc2cc[nH]c(=O)c2)cc1 [Compound 27, N-(2-oxo-1,2-dihydropyridin-4-yl)-2-(p-tolyloxy)-5-(trifluoromethyl)benzamide]"
6,106,"O=C(Nc1cc[nH]c(=O)c1)c1ccc(Cl)cc1Oc1ccc(F)cc1F [Compound 13, 4-chloro-2-(2,4-difluorophenoxy)-N-(2-oxo-1,2-dihydropyridin-4-yl)benzamide]"
7,24,"COc1ccc(Oc2ccc(C(F)(F)F)cc2C(=O)Nc2cc[nH]c(=O)c2)c(Cl)c1 [Compound 49, 2-(2-chloro-4-methoxyphenoxy)-N-(2-oxo-1,2-dihydropyridin-4-yl)-5-(trifluoromethyl)benzamide]"
8,126,"Cc1cc(F)ccc1Oc1ccc(C(F)(F)F)cc1C(=O)Nc1cc(Cl)[nH]c(=O)c1 [Compound 60, N-(6-chloro-2-oxo-1,2-dihydropyridin-4-yl)-2-(4-fluoro-2-methylphenoxy)-5-(trifluoromethyl)benzamide]"
9,765,"O=C(Nc1cc[nH]c(=O)c1)c1ccc(C(F)(F)F)cc1O[C@@H]1C[C@H]2CCC1C2 [Compound 118, 2-((2R)-bicyclo[2.2.1]heptan-2-yloxy)-N-(2-oxo-1,2-dihydropyridin-4-yl)-4-(trifluoromethyl)benzamide]"
10,285,"O=C(Nc1cc[nH]c(=O)c1)c1cc(F)ccc1Oc1ccc(OCC2CC2)cc1 [Compound 108, 2-(4-(cyclopropylmethoxy)phenoxy)-5-fluoro-N-(2-oxo-1,2-dihydropyridin-4-yl)benzamide]"
11,107,"O=C(Nc1cc[nH]c(=O)c1)c1cc(C(F)(F)F)ccc1Oc1ccccc1Cl [Compound 65, 2-(2-chlorophenoxy)-N-(2-oxo-1,2-dihydropyridin-4-yl)-5-(trifluoromethyl)benzamide]"
12,101,"Cc1ccccc1Oc1ccc(OC(F)(F)F)cc1C(=O)Nc1cc[nH]c(=O)c1 [Compound 36, N-(2-oxo-1,2-dihydropyridin-4-yl)-2-(o-tolyloxy)-5-(trifluoromethoxy)benzamide]"
13,58,"O=C(Nc1cc[nH]c(=O)c1)c1cc(C(F)(F)F)ccc1Oc1ccc(F)cc1F [Compound 24, 2-(2,4-difluorophenoxy)-N-(2-oxo-1,2-dihydropyridin-4-yl)-5-(trifluoromethyl)benzamide]"
14,64,"CCOc1ccccc1Oc1ccc(C(F)(F)F)cc1C(=O)Nc1cc[nH]c(=O)c1 [Compound 46, 2-(2-ethoxyphenoxy)-N-(2-oxo-1,2-dihydropyridin-4-yl)-5-(trifluoromethyl)benzamide]"
15,32,"COc1ccc(Oc2ccc(C(F)(F)F)cc2C(=O)Nc2cc[nH]c(=O)c2)cc1F [Compound 59, 2-(3-fluoro-4-methoxyphenoxy)-N-(2-oxo-1,2-dihydropyridin-4-yl)-5-(trifluoromethyl)benzamide]"
16,64,"COc1ccc(Oc2ccc(C(F)(F)F)cc2C(=O)Nc2cc[nH]c(=O)c2)cc1 [Compound 45, 2-(4-methoxyphenoxy)-N-(2-oxo-1,2-dihydropyridin-4-yl)-5-(trifluoromethyl)benzamide]"
17,1150,"COc1ccc(Oc2ccc(F)cc2C(=O)Nc2cc[nH]c(=O)c2)cc1 [Compound 104, 5-fluoro-2-(4-methoxyphenoxy)-N-(2-oxo-1,2-dihydropyridin-4-yl)benzamide]"
18,14,"COc1cc(F)ccc1Oc1cc(Cl)ccc1C(=O)Nc1cc[nH]c(=O)c1 [Compound 16, 4-chloro-2-(4-fluoro-2-methoxyphenoxy)-N-(2-oxo-1,2-dihydropyridin-4-yl)benzamide]"
19,69,"Cc1ccc(F)cc1Oc1ccc(C(F)(F)F)cc1C(=O)Nc1cc[nH]c(=O)c1 [Compound 56, 2-(5-fluoro-2-methylphenoxy)-N-(2-oxo-1,2-dihydropyridin-4-yl)-5-(trifluoromethyl)benzamide]"
